From ChEMBL document CHEMBL1201862, “PubChem BioAssay data set” (2004)
Calls of active or inactive are those of the source.

Assays:
Cytochrome P450 2C19 = Cytochrome P450 2C19 (Homo sapiens, UniProt P33261); experiment: Cytochrome panel assay with activity outcomes. Panel member name: p450-cyp2c19 Compounds with AC50 equal or less than 10 uM are considered active; assay type: functional
Cytochrome P450 3A4 = Cytochrome P450 3A4 (Homo sapiens, UniProt P08684);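 further: CYP3A4 tested as one member of a cytochrome P450 panel screen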
Cytochrome P450 2C9 = Cytochrome P450 2C9 (Homo sapiens, UniProt P11712)
[1] = inhibitors of SNCA 5'UTR-driven reporter translation, confirmation, H4 neuroglioma cells, luminescence (AID 1988); assay type: functional, cell-based
[2] = Luminescence Cell-Based Dose Response HTS to Identify Inhibitors of 5'UTR Stem-Loop Driven Prion Protein mRNA Translation in H4 Neuroglioblastoma Cells. [Related pubchem assays: 1827 (Project Summary), 1813 (Primary HTS)]; assay type: functional
[3] = inhibitors of firefly luciferase expression or activity, dose response, H4 neuroglioma cells, luminescence (AID 1990); assay type: functional, cell-based
Cytochrome P450 1A2 = biological target: T1, Cytochrome P450 1A2 (Homo sapiens, UniProt P05177);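 further: PubChem cytochrome P450 panel assay, CYP1A2 panel member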
T1 sequence (P05177 whole entry): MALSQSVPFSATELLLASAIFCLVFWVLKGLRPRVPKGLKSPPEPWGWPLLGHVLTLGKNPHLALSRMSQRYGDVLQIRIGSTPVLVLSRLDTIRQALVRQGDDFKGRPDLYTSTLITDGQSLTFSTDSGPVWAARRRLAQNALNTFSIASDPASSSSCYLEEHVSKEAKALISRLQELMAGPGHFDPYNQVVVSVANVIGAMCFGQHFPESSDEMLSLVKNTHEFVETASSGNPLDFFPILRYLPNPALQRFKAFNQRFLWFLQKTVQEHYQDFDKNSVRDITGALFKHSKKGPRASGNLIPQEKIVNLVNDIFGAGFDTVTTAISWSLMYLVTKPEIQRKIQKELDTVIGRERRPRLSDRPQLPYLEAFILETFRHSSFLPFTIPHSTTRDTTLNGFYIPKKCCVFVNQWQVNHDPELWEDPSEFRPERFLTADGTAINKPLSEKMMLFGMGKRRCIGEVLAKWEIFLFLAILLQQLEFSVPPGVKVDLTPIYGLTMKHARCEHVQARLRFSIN

Cytochrome P450 2D6 = Cytochrome P450 2D6 (Homo sapiens, UniProt P10635);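 further: CYP2D6 member of a cytochrome P450 panel assay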
[4] = biological target: T2, Rac GTPase-activating protein 1 (Homo sapiens, UniProt Q9H0H5); experiment: MgcRacGAP GTPase-activating activity inhibitors, confirmation, biochemical, ADP Hunter fluorescence, primary and confirmatory (AID 624330); assay type: functional
T2 sequence (Q9H0H5 whole entry): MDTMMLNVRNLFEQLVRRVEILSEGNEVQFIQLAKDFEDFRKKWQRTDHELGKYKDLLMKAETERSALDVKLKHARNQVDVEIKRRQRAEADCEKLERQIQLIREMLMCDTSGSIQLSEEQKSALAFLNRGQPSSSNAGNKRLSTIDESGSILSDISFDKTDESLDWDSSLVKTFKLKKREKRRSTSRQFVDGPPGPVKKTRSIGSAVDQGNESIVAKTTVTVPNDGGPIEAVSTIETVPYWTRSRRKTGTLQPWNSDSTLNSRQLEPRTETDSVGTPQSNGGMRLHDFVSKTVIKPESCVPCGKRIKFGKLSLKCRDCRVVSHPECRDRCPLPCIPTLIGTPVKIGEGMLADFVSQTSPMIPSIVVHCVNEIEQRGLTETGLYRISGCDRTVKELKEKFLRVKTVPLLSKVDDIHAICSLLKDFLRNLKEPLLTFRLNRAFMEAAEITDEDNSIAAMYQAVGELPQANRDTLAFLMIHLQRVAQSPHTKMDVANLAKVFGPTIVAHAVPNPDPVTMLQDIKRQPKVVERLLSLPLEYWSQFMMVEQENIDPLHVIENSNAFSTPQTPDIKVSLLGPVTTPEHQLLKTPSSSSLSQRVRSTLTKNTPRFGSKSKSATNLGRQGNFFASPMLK

Cytochrome P450 2C19, sequence (P33261 whole entry): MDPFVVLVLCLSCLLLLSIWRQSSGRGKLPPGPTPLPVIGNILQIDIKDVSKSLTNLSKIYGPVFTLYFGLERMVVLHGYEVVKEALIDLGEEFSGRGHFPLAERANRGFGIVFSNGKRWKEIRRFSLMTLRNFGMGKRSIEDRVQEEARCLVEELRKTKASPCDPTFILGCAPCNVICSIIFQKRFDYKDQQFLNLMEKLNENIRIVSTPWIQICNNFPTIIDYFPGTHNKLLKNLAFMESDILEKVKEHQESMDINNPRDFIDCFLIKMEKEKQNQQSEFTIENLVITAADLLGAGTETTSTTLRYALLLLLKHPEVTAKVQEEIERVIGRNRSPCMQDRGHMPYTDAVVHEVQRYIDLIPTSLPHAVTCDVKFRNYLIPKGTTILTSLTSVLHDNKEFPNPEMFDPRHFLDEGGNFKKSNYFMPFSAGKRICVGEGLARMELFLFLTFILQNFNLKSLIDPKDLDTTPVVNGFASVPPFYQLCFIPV
Cytochrome P450 3A4, sequence (P08684 whole entry): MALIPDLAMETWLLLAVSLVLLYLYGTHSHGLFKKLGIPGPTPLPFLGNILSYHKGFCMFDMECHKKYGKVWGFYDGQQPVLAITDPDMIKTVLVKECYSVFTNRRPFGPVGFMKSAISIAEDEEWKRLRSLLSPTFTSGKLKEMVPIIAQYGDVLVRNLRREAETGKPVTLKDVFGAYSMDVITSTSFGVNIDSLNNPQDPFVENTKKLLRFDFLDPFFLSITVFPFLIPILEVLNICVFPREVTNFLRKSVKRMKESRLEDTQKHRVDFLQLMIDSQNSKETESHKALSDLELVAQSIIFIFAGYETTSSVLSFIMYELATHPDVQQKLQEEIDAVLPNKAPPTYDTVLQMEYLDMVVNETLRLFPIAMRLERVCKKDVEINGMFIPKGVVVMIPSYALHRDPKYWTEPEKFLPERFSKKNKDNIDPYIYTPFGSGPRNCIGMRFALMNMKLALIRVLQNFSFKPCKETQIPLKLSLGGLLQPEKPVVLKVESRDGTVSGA
Cytochrome P450 2C9, sequence (P11712 whole entry): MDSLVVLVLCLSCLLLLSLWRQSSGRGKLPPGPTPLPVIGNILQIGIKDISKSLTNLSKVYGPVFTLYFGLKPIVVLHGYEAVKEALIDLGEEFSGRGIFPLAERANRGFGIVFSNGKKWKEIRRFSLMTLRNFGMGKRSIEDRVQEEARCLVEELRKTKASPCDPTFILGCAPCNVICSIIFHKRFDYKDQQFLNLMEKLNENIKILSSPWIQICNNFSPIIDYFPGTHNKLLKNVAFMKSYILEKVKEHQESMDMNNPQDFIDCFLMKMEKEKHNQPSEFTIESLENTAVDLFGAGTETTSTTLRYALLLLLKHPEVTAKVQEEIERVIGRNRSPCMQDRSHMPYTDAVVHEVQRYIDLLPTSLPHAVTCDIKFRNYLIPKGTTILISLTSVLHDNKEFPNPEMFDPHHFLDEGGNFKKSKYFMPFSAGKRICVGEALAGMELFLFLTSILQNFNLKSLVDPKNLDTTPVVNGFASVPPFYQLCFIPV
Cytochrome P450 2D6, sequence (P10635 whole entry): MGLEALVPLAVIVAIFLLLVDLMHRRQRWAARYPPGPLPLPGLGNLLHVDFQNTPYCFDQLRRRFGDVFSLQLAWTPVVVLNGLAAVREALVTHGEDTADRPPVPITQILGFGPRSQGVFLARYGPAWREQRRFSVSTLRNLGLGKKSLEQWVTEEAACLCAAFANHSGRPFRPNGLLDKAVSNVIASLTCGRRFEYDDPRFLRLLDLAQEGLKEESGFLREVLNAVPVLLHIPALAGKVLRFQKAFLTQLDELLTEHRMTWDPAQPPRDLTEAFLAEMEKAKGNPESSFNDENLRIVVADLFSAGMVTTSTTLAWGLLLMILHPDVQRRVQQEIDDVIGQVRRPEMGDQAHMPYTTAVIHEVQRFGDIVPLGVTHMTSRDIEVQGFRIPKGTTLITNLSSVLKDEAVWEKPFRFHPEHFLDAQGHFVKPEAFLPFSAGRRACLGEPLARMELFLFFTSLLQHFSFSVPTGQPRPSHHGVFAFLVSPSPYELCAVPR

Structure (SMILES)	AC50 (Cytochrome P450 3A4)	AC50 (Cytochrome P450 2C9)	AC50 (Cytochrome P450 1A2)	further results
Cc1cnn(-c2ccc3nnc(-c4ccc(Cl)cc4)n3n2)c1	1.12 µM (inconclusive)	6.31 µM (inconclusive)	–	AC50 (Cytochrome P450 2C19; read-out: AC50): 1.41 µM (inconclusive)
CCCC(=O)Nc1nnc(Cc2ccccc2)s1	15.8 µM (inconclusive)	10 µM (inconclusive)	–	–
CC1=CC2=NC(=O)CC(C)(C(=O)N(CC(=O)NC(C)(C)C)Cc3cccs3)N2C=C1 (stereo not drawn)	–	25.1 µM (inconclusive)	–	–
O=[N+]([O-])c1cc([N+](=O)[O-])c(Oc2cccc(Cl)c2Cl)cc1NN1CCCCC1	–	–	–	EC50 [1]: 58.3 µM (active); EC50 [2]: > 120 µM (not active); EC50 [3]: 11.8 µM (active)
CN(C)c1ncc2nc(-c3ccccc3)c(=O)n(-c3ccccc3)c2n1	–	–	0.398 µM (inconclusive)	–
COCCn1c(=O)cnc2cnc(Oc3ccccc3)nc21	25.1 µM (inconclusive)	–	–	–
O=C(Nc1ccccc1)N1CCCC2(CCN(C(=O)c3cc(C(F)(F)F)cc(C(F)(F)F)c3)CC2)C1	–	–	31.6 µM (inconclusive)	–
C=C(CC1([C@@H](NP(=O)(c2ccccc2)c2ccccc2)[C@H]2C[C@@H]2CCCC)CC1)c1cccc(OC)c1	–	39.8 µM (inconclusive)	12.6 µM (inconclusive)	AC50 (Cytochrome P450 2D6): 39.8 µM (inconclusive); AC50 (Cytochrome P450 2C19; read-out: AC50): 15.8 µM (inconclusive)
COc1ccc(O[C@H]2C=C[C@@H](c3ccccc3)O[C@@H]2CO/N=C(\C)CCN2CCCCc3nc(C)c(C)cc32)cc1	–	6.31 µM (inconclusive)	–	–
CC1CCN(c2ccc(NC(=S)NC(=O)c3ccco3)cc2)CC1	17.8 µM (inconclusive)	1.41 µM (inconclusive)	28.2 µM (inconclusive)	AC50 (Cytochrome P450 2C19; read-out: AC50): 3.98 µM (inconclusive)
Cc1cccc(NC(S)=NNC(=O)CCn2cc(C)cn2)c1	–	–	25.1 µM (inconclusive)	AC50 (Cytochrome P450 2C19): inconclusive
COC(=O)/C=C/c1ccccc1S(=O)(=O)N(Cc1ccccc1)Cc1ccco1	–	–	–	EC50 [1]: 5.96 µM (active); EC50 [2]: 9.84 µM (active); EC50 [3]: 8.38 µM (inconclusive)
CN(C)S(=O)(=O)c1ccc(Nc2ccc(O)c3c2C(=O)c2c([N+](=O)[O-])ccc(O)c2C3=O)cc1	3.98 µM (inconclusive)	3.16 µM (inconclusive)	–	AC50 (Cytochrome P450 2D6): 0.794 µM (inconclusive)
COCCNC(=O)[C@H](C)[C@@H]1C[C@@]1(C)[C@@H](NC(=O)OCc1ccccc1)c1ccccc1	–	31.6 µM (inconclusive)	–	–
Cc1ccc(S(=O)(=O)c2cc(N3CCOCC3)nc(-c3ccccc3)n2)cc1	–	11.2 µM (inconclusive)	–	–
COc1cc(-c2c(C#N)c(N)nc3c2CCCC3)cc(OC)c1OC	–	–	–	EC50 [1]: 19.7 µM (active); EC50 [2]: 17.1 µM (active); EC50 [3]: 27.4 µM (active)
COc1ccccc1CN1CCCC2(CCN(C(C)=O)CC2)C1	–	–	25.1 µM (inconclusive)	–
CC(=O)Nc1ccc2c(c1)/C(=C/c1ccc([N+](C)(C)C)cc1)c1ccccc1-2	–	3.16 µM (inconclusive)	1.58 µM (inconclusive)	–
O=C1N[C@@]2(CN3CCC2CC3)C(=O)N1CN(Cc1ccccc1)c1ccccc1	–	–	0.398 µM (inconclusive)	AC50 (Cytochrome P450 2C19; read-out: AC50): 1.58 µM (inconclusive)
COc1ccc(C)cc1NC(=O)CN1CCN(S(=O)(=O)c2ccc(F)cc2)CC1	–	–	0.0398 µM (inconclusive)	–
O=C(Nc1ccc(Oc2ncnc3cc(Cl)ccc23)nc1)c1cccs1	–	–	–	EC50 [1]: > 120 µM (not active); EC50 [2]: > 120 µM (not active); EC50 [3]: > 120 µM (not active)
Cc1cnc(CNc2ncncc2-c2ccccc2C(F)(F)F)cn1	0.2 µM (inconclusive)	–	–	AC50 (Cytochrome P450 2C19; read-out: AC50): 39.8 µM (inconclusive)
Cc1ccc(C(=O)NC(=S)Nc2ccc(S(=O)(=O)N3CCN(C)CC3)cc2)cc1	0.891 µM (inconclusive)	–	12.6 µM (inconclusive)	–
O=c1c2ccc([N+](=O)[O-])c3cccc(c32)c2nc3ccccc3n12	–	–	–	EC50 [1]: < 0.1 µM (active); EC50 [2]: < 0.1 µM (active); EC50 [3]: < 0.1 µM (active)
Cc1ccccc1CN1CCN(C(=O)c2cccc3ccccc23)CC1	–	–	–	IC50 [4]: 215 µM (active)

Structure (SMILES)	AC50 (Cytochrome P450 3A4)	AC50 (Cytochrome P450 2C9)	AC50 (Cytochrome P450 1A2)	further results
COCCNC(=S)Nc1cc(OC)c(OC)cc1C#N	–	–	–	IC50 [4]: 204 µM (active)
N#CC(C#N)=NNc1ccc2cn[nH]c2c1	1.58 µM (inconclusive)	–	–	AC50 (Cytochrome P450 2C19; read-out: AC50): 3.16 µM (inconclusive)
COc1ccc2cc3cc(C(=O)NCc4ccccn4)oc3nc2c1	39.8 µM (inconclusive)	–	–	AC50 (Cytochrome P450 2D6): 39.8 µM (inconclusive)
Cc1cc(=O)oc(C)c1C(=O)Nc1ccc(Cl)cn1	–	20 µM (inconclusive)	–	AC50 (Cytochrome P450 2C19; read-out: AC50): 2.24 µM (inconclusive)
O=C(NCc1ccc(F)cc1)C(c1ccncc1)N(C(=O)c1csnn1)C1CC1 (stereo not drawn)	–	8.91 µM (inconclusive)	–	AC50 (Cytochrome P450 2D6): 11.2 µM (inconclusive)
O=C(Nc1ccc(F)cc1Cl)c1ccc2c(=O)n3c(nc2c1)CCCCC3	4.47 µM (inconclusive)	–	–	AC50 (Cytochrome P450 2C19; read-out: AC50): 3.98 µM (inconclusive)
O=C(c1cccc(F)c1)N1CCC2(CCN(Cc3ccncc3)CC2)CC1	15.8 µM (inconclusive)	–	12.6 µM (inconclusive)	AC50 (Cytochrome P450 2D6): 12.6 µM (inconclusive); AC50 (Cytochrome P450 2C19; read-out: AC50): 25.1 µM (inconclusive)
O=c1c(-c2ccccc2)c(O)c2cccc3c2n1CCC3	–	–	11.2 µM (inconclusive)	–
Cc1cc(SC(C)C(=O)NCC(=O)Nc2ccc(F)c(F)c2F)nc2ccccc12 (stereo not drawn)	–	–	–	EC50 [1]: 18 µM (active); EC50 [2]: 92 µM (active); EC50 [3]: > 120 µM (not active)
COc1cc(/C=C/C(=O)OCC(=O)N2CCN(C(=O)c3ccco3)CC2)ccc1O	–	–	–	IC50 [4]: 44.8 µM (active)
CC(=O)[C@H](C(=N)C#N)C(=O)Nc1ccccc1	–	–	6.31 µM (inconclusive)	AC50 (Cytochrome P450 2C19): inconclusive
COC(=O)c1nn(C23CC4CC(CC(C4)C2)C3)c2c1C(=O)N(c1ccc(F)cc1)C2=O	–	12.6 µM (inconclusive)	–	AC50 (Cytochrome P450 2C19; read-out: AC50): 39.8 µM (inconclusive)
Cc1nnc(-c2cccc(Br)c2)c2cn(-c3ccccc3Cl)nc12	39.8 µM (inconclusive)	–	–	AC50 (Cytochrome P450 2D6): 28.2 µM (inconclusive)
COCC(=O)N1CCC2(CCCN(C(=O)Nc3ccc(OC)cc3)C2)CC1	39.8 µM (inconclusive)	–	–	AC50 (Cytochrome P450 2C19): inconclusive
O=C(Nc1ccc(-n2nncc2-c2ccco2)cc1)c1ccc(F)cc1	–	11.2 µM (inconclusive)	–	–
CSc1nc(NCc2ccco2)c2sc3nc(C(C)C)c4c(c3c2n1)CC(C)(C)OC4	–	–	–	EC50 [1]: > 120 µM (not active); EC50 [2]: > 120 µM (not active); EC50 [3]: 27.5 µM (active)
O=C(O)c1ccc(Oc2nc3ccccc3s2)cc1	–	–	3.16 µM (inconclusive)	–
O=c1c(-c2cccs2)nc2cnc(N3CCOCC3)nc2n1Cc1cccs1	10 µM (inconclusive)	–	15.8 µM (inconclusive)	–
Cn1c(=O)c2c(-c3cccc(F)c3)c3c(nc2n(C)c1=O)-c1ccccc1C3O (stereo not drawn)	22.4 µM (inconclusive)	2.82 µM (inconclusive)	–	AC50 (Cytochrome P450 2D6): 79.4 µM (inconclusive)
CCCCNC(=O)CN1C(=O)NC2(CCCc3ccccc32)C1=O (stereo not drawn)	–	–	25.1 µM (inconclusive)	AC50 (Cytochrome P450 2C19; read-out: AC50): 31.6 µM (inconclusive)
COc1ccc(-c2c[nH]nc2-c2ccc(O)cc2O)cc1OC	–	–	–	IC50 [4]: 60.2 µM (active)
Cc1c(N2C(=O)CS/C2=N\N=C\c2ccc(Cl)cc2)c(=O)n(-c2ccccc2)n1C	28.2 µM (inconclusive)	31.6 µM (inconclusive)	–	AC50 (Cytochrome P450 2C19; read-out: AC50): 39.8 µM (inconclusive)
CCCC1S/C(=N/N=C/c2ccc(OC)cc2)N(Cc2ccc(OC)cc2)C1=O (stereo not drawn)	1 µM (inconclusive)	–	–	–
Oc1ccc(/N=C(\S)Nc2ccc(O)cc2)cc1	–	–	–	IC50 [4]: 41.7 µM (active)
COC(=O)C1=C(C)NC(C)=C(C(=O)OC(C)C)C1c1cccc2nonc12 (stereo not drawn) [ISRADIPINE]	–	–	31.6 µM (inconclusive)	–
